Experiments:
[1] = target: T1, human mGluR2 (hmGluR2) (Homo sapiens, UniProt Q14416); assay: Ca++ functional assay, human mGluR2 transiently over-expressed in HEK-293 cells (agonist and negative allosteric modulator modes); assay type: cell-based; conditions: glutamate at EC80, intracellular calcium (Fluo4AM), read-out: hmGluR2 negative allosteric modulator activity IC50
T1 construct: expressed in transfected cells; host or cells: HEK-293 cells, transient co-transfection by electroporation
Description: Example 127: Human mGluR2 and mGluR3 Evaluation Using Ca^++ Functional Assay
Examples of the present invention were tested successively for their agonist and negative allosteric modulator activities on human mGluR2 (hmGluR2) and mGluR3 (hmGluR3) transiently over-expressed in HEK-293 cells.
Cell Culture and Transfection
HEK-293 cells are maintained in Modified Eagle's Medium supplemented with 10% Foetal Calf Serum, 1% Penicillin/Streptomycin and 1% non-essential amino acids at 37° C./5% CO2.
Cells are co-transfected by electroporation with four DNA plasmids encoding hmGluR2 or hmGluR3, a chimeric G protein allowing redirection of the activation signal to intracellular calcium pathway (Brabet I et al., Neuropharmacology 37(8), 1043-51, 1998), and two glutamate transporters minimizing receptor desensitization by endogenous glutamate. After transfection, cells are cultured for 24 h at 37° C./5% CO2.
Calcium Assay IC50 Determination
Receptor activity is detected by changes in intracellular calcium measured using the fluorescent Ca^2+ sensitive dye, Fluo4AM (Molecular Probes).
On the day of the assay, culture medium is aspirated and replaced during 3 hours by medium without serum supplemented with 1% Glutamax, 1% Penicillin/Streptomycin and 1% non-essential amino acids. Then, cells are washed with freshly prepared buffer B (HBSS 1×(PAA), Hepes 20 mM, MgSO4-7H2O 1 mM, Na2CO3 3.3 mM, CaCl2-2H2O 1.3 mM, 0.1% BSA, Probenecid 2.5 mM) and loaded at 37° C. in 5% CO2 for 1.5 hours with buffer B containing 1 μM Fluo4AM, 0.1 mg/mL Pluronic Acid, 7 μg/mL Glutamate Pyruvate Transaminase and 2 mM sodium pyruvate. Afterwards cells are washed twice with buffer B. Then cells are detached using StemPro Accutase (Fischer Scientific), resuspended in buffer B and seeded in 384 well plate at a density of 30,000 cells per well. Addition of compounds and intracellular Ca^2+ measurements (excitation 485 nm, emission 525 nm) are performed by the fluorescence microplate reader FLIPRTetra (Molecular Devices).
Agonist and negative allosteric modulator activities of compounds are consecutively evaluated on the same cell plate. […] Then, cells are stimulated by an EC80 glutamate concentration and fluorescence is recorded for additional 3 minutes. EC80 glutamate concentration is the concentration giving 80% of the maximal glutamate response. Agonist or negative allosteric modulator activity(ies) are evaluated in comparison to basal signals evoked by buffer B or EC80 glutamate alone, respectively.
For IC50 determination, a dose-response test is performed using 20 concentrations (ranging over 6 logs) of each compound. Dose-response curves are fitted using the sigmoidal dose-response (variable slope) analysis in GraphPad Prism program (Graph Pad Inc) and IC50 of negative allosteric modulator activity is calculated. Dose-response experiments are performed in duplicate, two times independently.

T1 sequence (Q14416 19-872): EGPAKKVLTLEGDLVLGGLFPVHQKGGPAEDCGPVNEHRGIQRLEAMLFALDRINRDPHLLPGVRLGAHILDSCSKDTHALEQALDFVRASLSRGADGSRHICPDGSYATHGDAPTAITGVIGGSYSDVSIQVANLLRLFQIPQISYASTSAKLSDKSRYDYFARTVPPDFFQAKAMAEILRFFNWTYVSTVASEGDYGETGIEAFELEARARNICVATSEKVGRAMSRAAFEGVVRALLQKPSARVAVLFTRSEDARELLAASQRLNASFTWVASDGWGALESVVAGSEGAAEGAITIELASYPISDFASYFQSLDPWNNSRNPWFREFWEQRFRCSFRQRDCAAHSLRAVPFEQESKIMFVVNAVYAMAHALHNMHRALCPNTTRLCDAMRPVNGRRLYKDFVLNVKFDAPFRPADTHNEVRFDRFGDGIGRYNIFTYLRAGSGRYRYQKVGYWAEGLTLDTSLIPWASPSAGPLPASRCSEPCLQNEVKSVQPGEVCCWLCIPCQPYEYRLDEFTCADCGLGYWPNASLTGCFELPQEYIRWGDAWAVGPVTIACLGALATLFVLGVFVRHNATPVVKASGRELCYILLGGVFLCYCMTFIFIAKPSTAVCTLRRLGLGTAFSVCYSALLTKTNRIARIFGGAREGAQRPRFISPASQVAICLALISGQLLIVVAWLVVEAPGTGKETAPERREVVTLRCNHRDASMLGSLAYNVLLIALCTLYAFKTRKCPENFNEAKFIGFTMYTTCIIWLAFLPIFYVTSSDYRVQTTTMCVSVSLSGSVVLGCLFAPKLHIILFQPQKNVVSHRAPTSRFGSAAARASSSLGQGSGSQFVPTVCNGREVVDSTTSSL

| Structure (SMILES) | IC50 [1] [µM] | melting point [°C] |
| --- | --- | --- |
| CCc1cc(-c2cc3n(C)c(=O)c4ccccc4n3n2)ccn1.Cl [Example 3, 2-(2-Ethyl-pyridin-4-yl)-4-methyl-4H-pyrazolo[1,5-a]quinazolin-5-one] | < 1 | > 250 |
| CCCc1cc(-c2cc3n(C)c(=O)c4ccccc4n3n2)ccn1.Cl [Example 4, 2-(2-propyl-pyridin-4-yl)-4-methyl-4H-pyrazolo[1,5-a]quinazolin-5-one] | < 1 | > 250 |
| Cl.Cn1c(=O)c2ccccc2n2nc(-c3ccnc(C4CC4)c3)cc12 [Example 5, 2-(2-Cyclopropyl-pyridin-4-yl)-4-methyl-4H-pyrazolo[1,5-a]quinazolin-5-one] | < 1 | 248 to 251 |
| Cl.Cn1c(=O)c2ccccc2n2nc(-c3ccnc(C4CCC4)c3)cc12 [Example 6, 2-(2-cyclobutyl-pyridin-4-yl)-4-methyl-4H-pyrazolo[1,5-a]quinazolin-5-one] | < 1 | 236 to 244 |
| CC(C)c1cc(-c2cc3n(C)c(=O)c4ccccc4n3n2)ccn1.Cl [Example 11, 2-(2-Isopropyl-pyridin-4-yl)-4-methyl-4H-pyrazolo[1,5-a]quinazolin-5-one] | < 1 | > 250 |
| Cn1c(=O)c2ccccc2n2nc(-c3ccnc(C#N)c3)cc12 [Example 12, 4-(4-Methyl-5-oxo-4,5-dihydro-pyrazolo[1,5-a]quinazolin-2-yl)-pyridine-2-carbonitrile] | < 1 | > 250 |
| COc1cc(-c2cc3n(C)c(=O)c4ccccc4n3n2)ccn1 [Example 14, 2-(2-Methoxy-pyridin-4-yl)-4-methyl-4H-pyrazolo[1,5-a]quinazolin-5-one] | < 1 | > 250 |
| CCOc1cc(-c2cc3n(C)c(=O)c4ccccc4n3n2)ccn1 [Example 15, 2-(2-ethoxy-pyridin-4-yl)-4-methyl-4H-pyrazolo[1,5-a]quinazolin-5-one] | < 1 | 180 to 182 |
| CC(C)Oc1cc(-c2cc3n(C)c(=O)c4ccccc4n3n2)ccn1 [Example 16, 2-(2-Isopropoxy-pyridin-4-yl)-4-methyl-4H-pyrazolo[1,5-a]quinazolin-5-one] | < 1 | 173 to 176 |
| Cn1c(=O)c2ccccc2n2nc(-c3ccnc(OC4CCC4)c3)cc12 [Example 17, 2-(2-Cyclobutoxy-pyridin-4-yl)-4-methyl-4H-pyrazolo[1,5-a]quinazolin-5-one] | < 1 | 218 to 222 |
| Cn1c(=O)c2ccccc2n2nc(-c3ccnc(OCC4CC4)c3)cc12 [Example 19, 2-(2-Cyclopropylmethoxy-pyridin-4-yl)-4-methyl-4H-pyrazolo[1,5-a]quinazolin-5-one] | < 1 | 185 to 189 |
| Cn1c(=O)c2ccccc2n2nc(-c3ccnc(OCC(F)(F)F)c3)cc12 [Example 21, 4-Methyl-2-[2-(2,2,2-trifluoro-ethoxy)-pyridin-4-yl]-4H-pyrazolo[1,5-a]quinazolin-5-one] | < 1 | 219 to 223 |
| Cn1c(=O)c2ccccc2n2nc(-c3ccnc(OCC(F)F)c3)cc12 [Example 22, 4-Methyl-2-[2-(2,2-difluoro-ethoxy)-pyridin-4-yl]-4H-pyrazolo[1,5-a]quinazolin-5-one] | < 1 | 209 to 213 |
| Cn1c(=O)c2ccccc2n2nc(-c3ccnc(OCC(C)(F)F)c3)cc12 [Example 23, 2-[2-(2,2-Difluoro-propoxy)-pyridin-4-yl]-4-methyl-4H-pyrazolo[1,5-a]quinazolin-5-one] | < 1 | 189 to 191 |
| Cn1c(=O)c2ccccc2n2nc(-c3ccnc(OCC(F)(F)C(F)(F)F)c3)cc12 [Example 24, 4-Methyl-2-[2-(2,2,3,3,3-pentafluoro-propoxy)-pyridin-4-yl]-4H-pyrazolo[1,5-a]quinazolin-5-one] | < 1 | 150 to 155 |
| Cn1c(=O)c2ccccc2n2nc(-c3ccnc(OC(C(F)(F)F)C(F)(F)F)c3)cc12 [Example 25, 4-Methyl-2-[2-(2,2,2-trifluoro-1-trifluoromethyl-ethoxy)-pyridin-4-yl]-4H-pyrazolo[1,5-a]quinazolin-5-one] | < 1 | 188 to 194 |

| Structure (SMILES) | IC50 [1] [µM] | melting point [°C] |
| --- | --- | --- |
| Cn1c(=O)c2ccccc2n2nc(-c3ccnc(C(F)(F)F)c3)cc12 [Example 26, 4-Methyl-2-(2-trifluoromethyl-pyridin-4-yl)-4H-pyrazolo[1,5-a]quinazolin-5-one] | < 1 | 232 to 244 |
| [2H]C([2H])([2H])n1c(=O)c2ccccc2n2nc(-c3ccnc(C(F)(F)F)c3)cc12 [Example 27, 4-Methyl(D3)-2-(2-trifluoromethyl-pyridin-4-yl)-4H-pyrazolo[1,5-a]quinazolin-5-one] | < 1 | 232 to 237 |
| CCn1c(=O)c2ccccc2n2nc(-c3ccnc(C(F)(F)F)c3)cc12 [Example 28, 4-Ethyl-2-(2-trifluoromethyl-pyridin-4-yl)-4H-pyrazolo[1,5-a]quinazolin-5-one] | < 1 | 214 to 220 |
| Cn1c(=O)c2ccccc2n2nc(-c3ccnc(C(F)F)c3)cc12 [Example 31, 4-Methyl-2-(2-difluoromethyl-pyridin-4-yl)-4H-pyrazolo[1,5-a]quinazolin-5-one] | < 1 | 192 to 196 |
| Cn1c(=O)c2ccccc2n2nc(-c3ccnc(C(C)(F)F)c3)cc12 [Example 32, 2-[2-(1,1-Difluoro-ethyl)-pyridin-4-yl]-4-methyl-4H-pyrazolo[1,5-a]quinazolin-5-one] | < 1 | 196 to 207 |
| [2H]C([2H])([2H])n1c(=O)c2ccccc2n2nc(-c3ccnc(C(C)(F)F)c3)cc12 [Example 33, 2-[2-(1,1-Difluoro-ethyl)-pyridin-4-yl]-4-methyl(D3)-4H-pyrazolo[1,5-a]quinazolin-5-one] | < 1 | 198 to 205 |
| Cc1ccc2c(c1)c(=O)n(C)c1cc(-c3ccnc(C(F)(F)F)c3)nn21 [Example 34] | < 1 | 215 to 218 |
| COc1ccc2c(c1)c(=O)n(C)c1cc(-c3ccnc(C(F)(F)F)c3)nn21 [Example 36] | < 1 | 201 to 205 |
| Cn1c(=O)c2cc(F)ccc2n2nc(-c3ccnc(C(F)(F)F)c3)cc12 [Example 38] | < 1 | > 250 |
| CNc1ccc2c(c1)c(=O)n(C)c1cc(-c3ccnc(C(F)(F)F)c3)nn21 [Example 40, 4-Methyl-7-methylamino-2-(2-trifluoromethyl-pyridin-4-yl)-4H-pyrazolo[1,5-a]quinazolin-5-one] | < 1 | > 250 |
| [2H]C([2H])([2H])Nc1ccc2c(c1)c(=O)n(C)c1cc(-c3ccnc(C(F)(F)F)c3)nn21 [Example 41, 4-Methyl-7-methyl(D3)amino-2-(2-trifluoromethyl-pyridin-4-yl)-4H-pyrazolo[1,5-a]quinazolin-5-one] | < 1 | > 250 |
| CN(C)c1ccc2c(c1)c(=O)n(C)c1cc(-c3ccnc(C(F)(F)F)c3)nn21 [Example 44, 7-Dimethylamino-4-methyl-2-(2-trifluoromethyl-pyridin-4-yl)-4H-pyrazolo[1,5-a]quinazolin-5-one] | < 1 | > 250 |
| Cc1cc(-c2cc3n(C)c(=O)c4ccccc4n3n2)cc(C2CC2)n1 [Example 106, 2-(2-Cyclopropyl-6-methyl-pyridin-4-yl)-4-methyl-4H-pyrazolo[1,5-a]quinazolin-5-one] | < 1 | – |
| Cn1c(=O)c2ccccc2n2nc(-c3ccncc3Cl)cc12 [Example 108, 2-(3-Chloro-pyridin-4-yl)-4-methyl-4H-pyrazolo[1,5-a]quinazolin-5-one] | < 1 | – |
| Cn1c(=O)c2ccc(F)cc2n2nc(-c3ccnc(Cl)c3)cc12 [Example 117, 2-(2-Chloro-pyridin-4-yl)-8-fluoro-4-methyl-4H-pyrazolo[1,5-a]quinazolin-5-one] | < 1 | – |

Source: patent US10221179B2, “Substituted pyrazoloquinazolinones and pyrroloquinazolinones as allosteric modulators of group II metabotropic glutamate receptors” (DOMAIN THERAPEUTICS, priority 2014, dated 2019)
